Legend:
wild type HT1080 cells = test: In vitro binding on wild type HT1080 cells (negative control); assay type: cell-based
Protocol: (§1) The binding properties of the FAPI derivatives were evaluated using the FAP‐transfected HT‐1080‐FAP and CD26 expressing HEK-CD26 cells. All cells were cultivated in Dulbecco's modified Eagle's medium (DMEM) containing 10% fetal calf serum (FCS) at 37 °C/5% carbon dioxide. Cells were seeded in 6-well plates and cultivated to a final confluence of approximately 80–90% (1.2 to 2.0 × 10^6 cells/well). After washing with FCS free medium, for each well ca. 3 kBq of the radiolabeled compound (10–20 GBq/µmol for [^18F]AlF-labeling) was added to the cells in FCS free medium. On completion of the individual incubation time, cells were washed with PBS and treated with 1.4 mL lysis buffer (0.3 m NaOH, 0.2% SDS) before being transferred to measuring tubes. Competition experiments were performed by co-incubation with the unlabeled precursor for 60 min. Radioactivity was determined in a Wizard Gamma Counter (Perkin Elmer), normalized to 10^6 cells and calculated as percentage of the applied dose (%AD). Each experiment was performed in triplicate.
Table 1 summarizes the uptake and EC50 values of the discussed ^18F-labeled FAPI derivatives using the FAP-transfected cell line HT-1080-FAP. Additionally, the lead candidates FAPI-74 to -76 were tested on HEK-CD26 as well as -74 and -75 on wild type HT1080 cells as negative control. […] For FAPI-74, a plateau was already reached after approximately 10 min with 27.2 ± 0.88%AD/10^6cells. […] The EC50 values were all in the low to sub-nanomolar range. Only a neglectable fraction of FAPIs 74–76 were detected on HEK-CD26 cells (0.18–0.24%) as well as on wildtype HT1080 in case of -74 and 75 (< 0.1%).

FAP (HT-1080-FAP cells) = biological target: T1, FAP (HT-1080-FAP cells) (Homo sapiens, UniProt Q12884); test: Competition experiments with unlabeled precursor on HT-1080-FAP cells; assay type: binding; settings: co-incubation with unlabeled precursor for 60 min
T1 construct: expressed in transfected cells; host or cells: HT-1080 cells transfected with FAP (HT-1080-FAP)
T1 sequence (Q12884 1-760): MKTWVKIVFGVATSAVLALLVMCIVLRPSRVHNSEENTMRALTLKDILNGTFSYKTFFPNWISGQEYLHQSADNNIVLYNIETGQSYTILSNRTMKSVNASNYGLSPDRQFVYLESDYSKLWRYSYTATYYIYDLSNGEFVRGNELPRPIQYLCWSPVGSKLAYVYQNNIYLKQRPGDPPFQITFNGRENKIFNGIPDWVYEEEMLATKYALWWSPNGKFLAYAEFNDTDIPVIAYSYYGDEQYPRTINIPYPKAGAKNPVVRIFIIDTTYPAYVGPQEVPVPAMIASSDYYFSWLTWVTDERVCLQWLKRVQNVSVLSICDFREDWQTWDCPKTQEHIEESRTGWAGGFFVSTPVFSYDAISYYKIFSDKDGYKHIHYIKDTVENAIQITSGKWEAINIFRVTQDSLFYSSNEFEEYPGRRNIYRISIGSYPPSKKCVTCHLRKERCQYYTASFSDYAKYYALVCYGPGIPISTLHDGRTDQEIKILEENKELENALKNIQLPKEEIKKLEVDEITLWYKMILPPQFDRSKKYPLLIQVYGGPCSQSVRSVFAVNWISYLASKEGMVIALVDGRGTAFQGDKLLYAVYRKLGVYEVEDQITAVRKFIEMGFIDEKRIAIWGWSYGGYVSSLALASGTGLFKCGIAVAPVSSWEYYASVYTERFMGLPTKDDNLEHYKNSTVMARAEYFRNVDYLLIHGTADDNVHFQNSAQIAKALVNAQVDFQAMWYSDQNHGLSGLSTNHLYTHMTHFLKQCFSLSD
Protocol: as §1

HT-1080-FAP xenografts = test: Organ distribution (biodistribution) study; assay type: in vivo, BALB/c nu/nu mice
Protocol: Eight-week-old BALB/c nu/nu mice (Charles River) were subcutaneously inoculated with 5 × 10^6 HT-1080-FAP cells. The subcutaneous xenografts were grown at the flanks of the mice. Xenografts were grown to a tumor diameter of 10–15 mm. Mice were anesthetized using isoflurane inhalation. 5–10 MBq of the [^18F]AlF-labeled compounds/ the respective tracer (FAPI-42/52/74/75/76; approx. 0.5 nmol; Am approximately 10–20 GBq/µmol) were injected intravenously for PET imaging. In vivo competition (blocking) experiments with ^68 Ga-FAPI-74 (9 MBq; 18.2 GBq/µmol) were performed by adding 30 nmol of unlabeled FAPI-74 to the injection solution. Images were acquired using a small-animal PET scanner (Inveon, Siemens). Within the first 60 min p.i., a dynamic scan was performed in list mode, followed by a static scan from 120–140 min post injection. Images were reconstructed iteratively using the 3D-OSEM + MAP method (Siemens) and were converted to standardized uptake value (SUV). For the dynamic analysis, 28 frames were reconstructed. Quantification was based on ROI analysis and expressed as SUV.
To reduce radiation exposure, the organ distribution study was performed with 1 MBq per animal. […] The radioactivity was measured using a γ-counter (Packard Cobra II Autogamma, GMI Inc., USA) and expressed as percentage of injected dose per gram of tissue (%ID/g). […]

[1] = tested on: NSCLC primary tumor and metastases; test: Clinical PET/CT imaging of a patient with NSCLC; assay type: in vivo, human; settings: for SUVmean / SUVmax: primary tumor and metastases; for SUVmax: 323 MBq i.v.
Protocol: [^18F]AlF-FAPI-74 (16.2 GBq/µmol at time of injection) was applied intravenously (20 nmol; 323 MBq) to a patient with NSCLC. The PET/CT scans were performed 1 and 3 h post tracer administration with a Biograph mCT Flow™ PET/CT-Scanner (Siemens Medical Solutions). The parameters used were slice thickness of 5 mm, increment of 3–4 mm, soft-tissue reconstruction kernel and care dose. After CT scanning, a whole-body PET was acquired in 3D (matrix 200 × 200) in FlowMotion™ with 0.7 cm/min. The emission data were corrected for random, scatter and decay. Reconstruction was conducted with an ordered subset expectation maximization (OSEM) algorithm with 2 iterations/21 subsets and Gauss-filtered to a transaxial resolution of 5 mm at full-width half-maximum. Attenuation correction was performed using the low-dose non-enhanced CT data. The quantitative assessment of standardized uptake values (SUV) was done using a region of interest technique.

- EC50 (FAP (HT-1080-FAP cells)): 4.2 nM
- tumor uptake (HT-1080-FAP xenografts; after 30 min, HT-1080-FAP bearing Balb/c nu/nu mice): 6.9 %ID/g
- early tumor uptake (HT-1080-FAP xenografts; early, discussion): approximately 7 %ID/g
- excretion route in patient ([1]; non-target tissues and blood pool): excreted predominantly via the kidneys
- SUV in normal tissues ([1]; normal tissues of the patient): almost zero
- SUVmean ([1]; 1 h): 3.3 ± 0.6
- SUVmax ([1]; 1 h): 6.5 ± 1.1
- SUVmean ([1]; 3 h): 2.75 ± 0.5
- SUVmax ([1]; 3 h): 5.6 ± 0.7
Structure (SMILES): N#C[C@@H]1CCCN1C(=O)CNC(=O)c1ccnc2ccc(OCCCN3CCN(C(=O)CN4CCN(CC(=O)O)CCN(CC(=O)O)CC4)CC3)cc12 [FAPI-74]
- uptake WT (wild type HT1080 cells; wild type HT1080 control cells): 0.07 ± 0.03 %AD/10^6 cells
- fraction detected on wildtype HT1080 (wild type HT1080 cells; wildtype HT1080, text): < 0.1%
